Measurements from paper PMC10507085, “Pharmacological inhibition of TBK1/IKKε blunts immunopathology in a murine model of SARS-CoV-2 infection” (Nature Communications, 2023).

Experiments:
Assay in all cases: biochemical
Design in all cases: KINOMEscan competition binding, DNA-tagged kinase against immobilised ligand, qPCR read-out
Details in all cases: read-out: Percent Control
DCLK3 = DCLK3 (Homo sapiens, UniProt Q9C098)
PRKCE = PRKCE (Homo sapiens, UniProt Q02156)
PDGFRB = PDGFRB (Homo sapiens, UniProt P09619)
Sequence of PDGFRB (P09619 whole entry): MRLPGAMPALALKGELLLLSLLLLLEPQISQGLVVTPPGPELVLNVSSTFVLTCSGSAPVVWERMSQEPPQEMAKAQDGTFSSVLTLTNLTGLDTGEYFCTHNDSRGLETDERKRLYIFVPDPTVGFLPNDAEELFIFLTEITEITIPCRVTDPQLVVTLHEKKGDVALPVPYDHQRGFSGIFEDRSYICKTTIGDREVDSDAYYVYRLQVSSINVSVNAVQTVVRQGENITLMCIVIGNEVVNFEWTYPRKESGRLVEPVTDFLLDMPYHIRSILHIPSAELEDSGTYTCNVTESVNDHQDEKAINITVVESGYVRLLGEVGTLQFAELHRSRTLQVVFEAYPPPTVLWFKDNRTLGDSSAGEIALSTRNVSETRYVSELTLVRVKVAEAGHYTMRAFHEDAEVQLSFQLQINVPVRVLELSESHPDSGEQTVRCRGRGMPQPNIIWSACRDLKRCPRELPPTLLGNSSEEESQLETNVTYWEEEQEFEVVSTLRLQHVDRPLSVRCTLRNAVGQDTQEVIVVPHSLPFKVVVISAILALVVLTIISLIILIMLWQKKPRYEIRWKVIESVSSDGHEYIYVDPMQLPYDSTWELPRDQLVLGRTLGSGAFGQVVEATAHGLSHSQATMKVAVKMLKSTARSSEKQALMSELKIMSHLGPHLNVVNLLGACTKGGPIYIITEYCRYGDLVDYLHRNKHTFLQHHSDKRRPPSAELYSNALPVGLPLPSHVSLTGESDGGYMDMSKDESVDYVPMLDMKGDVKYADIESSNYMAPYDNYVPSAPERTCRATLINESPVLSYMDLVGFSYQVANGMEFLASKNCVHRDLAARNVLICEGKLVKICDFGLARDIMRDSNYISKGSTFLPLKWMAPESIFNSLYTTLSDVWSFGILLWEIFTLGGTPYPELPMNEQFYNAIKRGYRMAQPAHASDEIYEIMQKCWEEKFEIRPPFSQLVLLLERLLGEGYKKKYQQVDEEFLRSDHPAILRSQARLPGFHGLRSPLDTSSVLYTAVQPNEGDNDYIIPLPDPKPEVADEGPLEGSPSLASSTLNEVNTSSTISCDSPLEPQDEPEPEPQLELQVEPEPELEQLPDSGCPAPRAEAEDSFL

ACVR2B = ACVR2B (Homo sapiens, UniProt Q13705)
TSSK3 = TSSK3 (Homo sapiens, UniProt Q96PN8)
Sequence of TSSK3 (Q96PN8 whole entry): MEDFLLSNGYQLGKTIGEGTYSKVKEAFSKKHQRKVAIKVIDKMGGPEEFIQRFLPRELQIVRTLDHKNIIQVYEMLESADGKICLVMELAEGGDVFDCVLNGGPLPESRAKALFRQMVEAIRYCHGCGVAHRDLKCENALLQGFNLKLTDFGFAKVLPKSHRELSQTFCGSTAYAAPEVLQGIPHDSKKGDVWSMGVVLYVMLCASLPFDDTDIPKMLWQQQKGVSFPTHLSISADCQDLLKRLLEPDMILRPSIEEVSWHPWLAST

NUAK2 = NUAK2 (Homo sapiens, UniProt Q9H093)
SIK2 = SIK2 (Homo sapiens, UniProt Q9H0K1)
Sequence of SIK2 (Q9H0K1 whole entry): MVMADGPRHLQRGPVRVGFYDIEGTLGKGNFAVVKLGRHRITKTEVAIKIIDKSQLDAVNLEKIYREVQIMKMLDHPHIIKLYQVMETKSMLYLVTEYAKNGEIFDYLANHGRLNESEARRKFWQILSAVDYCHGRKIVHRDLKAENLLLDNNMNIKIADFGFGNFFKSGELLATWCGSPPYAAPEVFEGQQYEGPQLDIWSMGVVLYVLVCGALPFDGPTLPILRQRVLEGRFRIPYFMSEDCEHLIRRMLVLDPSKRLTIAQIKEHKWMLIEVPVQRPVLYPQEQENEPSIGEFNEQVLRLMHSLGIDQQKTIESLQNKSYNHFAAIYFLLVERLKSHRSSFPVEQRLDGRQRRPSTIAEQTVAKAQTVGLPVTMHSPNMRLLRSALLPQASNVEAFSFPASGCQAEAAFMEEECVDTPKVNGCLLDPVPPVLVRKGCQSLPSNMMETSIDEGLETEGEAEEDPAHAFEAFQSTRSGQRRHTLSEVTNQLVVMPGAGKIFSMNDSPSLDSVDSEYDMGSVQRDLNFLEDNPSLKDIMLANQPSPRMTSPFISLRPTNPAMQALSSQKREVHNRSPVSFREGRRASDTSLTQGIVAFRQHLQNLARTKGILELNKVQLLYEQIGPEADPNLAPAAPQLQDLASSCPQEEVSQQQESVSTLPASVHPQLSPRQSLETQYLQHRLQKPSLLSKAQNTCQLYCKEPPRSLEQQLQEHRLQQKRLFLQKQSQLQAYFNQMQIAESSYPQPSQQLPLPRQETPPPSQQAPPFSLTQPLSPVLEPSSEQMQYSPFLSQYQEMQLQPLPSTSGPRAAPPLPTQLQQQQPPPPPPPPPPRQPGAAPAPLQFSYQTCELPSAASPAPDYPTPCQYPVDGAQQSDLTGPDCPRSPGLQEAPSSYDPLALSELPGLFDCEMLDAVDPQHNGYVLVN

PIK3C2G = PIK3C2G (Homo sapiens, UniProt O75747)
CDK16 = CDK16 (Homo sapiens, UniProt Q00536)
BLK = BLK (Homo sapiens, UniProt P51451)
FGFR2 = FGFR2 (Homo sapiens, UniProt P21802)
Sequence of FGFR2 (P21802 whole entry): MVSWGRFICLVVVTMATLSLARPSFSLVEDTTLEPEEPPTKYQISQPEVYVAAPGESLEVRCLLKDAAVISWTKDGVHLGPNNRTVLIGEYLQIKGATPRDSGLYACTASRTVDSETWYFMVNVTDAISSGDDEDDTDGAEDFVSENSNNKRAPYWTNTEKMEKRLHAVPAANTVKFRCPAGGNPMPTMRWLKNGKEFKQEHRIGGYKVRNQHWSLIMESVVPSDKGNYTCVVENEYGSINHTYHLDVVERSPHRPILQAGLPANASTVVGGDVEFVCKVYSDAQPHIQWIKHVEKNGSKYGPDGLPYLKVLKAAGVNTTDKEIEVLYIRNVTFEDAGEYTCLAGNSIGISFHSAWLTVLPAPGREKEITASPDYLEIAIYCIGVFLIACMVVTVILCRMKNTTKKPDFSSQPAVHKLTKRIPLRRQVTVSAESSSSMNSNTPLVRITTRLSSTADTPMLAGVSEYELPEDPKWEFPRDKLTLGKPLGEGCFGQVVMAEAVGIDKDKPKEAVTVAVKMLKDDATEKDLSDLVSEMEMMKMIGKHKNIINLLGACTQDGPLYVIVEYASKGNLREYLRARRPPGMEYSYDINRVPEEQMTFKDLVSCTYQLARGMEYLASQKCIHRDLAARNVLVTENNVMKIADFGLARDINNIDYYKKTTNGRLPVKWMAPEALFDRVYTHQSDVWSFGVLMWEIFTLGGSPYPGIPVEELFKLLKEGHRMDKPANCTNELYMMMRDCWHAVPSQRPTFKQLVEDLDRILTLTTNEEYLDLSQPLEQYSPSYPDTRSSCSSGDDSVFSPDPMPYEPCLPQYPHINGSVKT

MTOR = MTOR (Homo sapiens, UniProt P42345)
MYLK2 = MYLK2 (Homo sapiens, UniProt Q9H1R3)
SGK3 = SGK3 (Homo sapiens, UniProt Q96BR1)
MAPK6 = MAPK6 (Homo sapiens, UniProt Q16659)
CASK = CASK (Homo sapiens, UniProt O14936)
PIP5K1A = PIP5K1A (Homo sapiens, UniProt Q99755)
SYK = SYK (Homo sapiens, UniProt P43405)
EGFR = EGFR (Homo sapiens, UniProt P00533)
Sequence of EGFR (P00533 whole entry): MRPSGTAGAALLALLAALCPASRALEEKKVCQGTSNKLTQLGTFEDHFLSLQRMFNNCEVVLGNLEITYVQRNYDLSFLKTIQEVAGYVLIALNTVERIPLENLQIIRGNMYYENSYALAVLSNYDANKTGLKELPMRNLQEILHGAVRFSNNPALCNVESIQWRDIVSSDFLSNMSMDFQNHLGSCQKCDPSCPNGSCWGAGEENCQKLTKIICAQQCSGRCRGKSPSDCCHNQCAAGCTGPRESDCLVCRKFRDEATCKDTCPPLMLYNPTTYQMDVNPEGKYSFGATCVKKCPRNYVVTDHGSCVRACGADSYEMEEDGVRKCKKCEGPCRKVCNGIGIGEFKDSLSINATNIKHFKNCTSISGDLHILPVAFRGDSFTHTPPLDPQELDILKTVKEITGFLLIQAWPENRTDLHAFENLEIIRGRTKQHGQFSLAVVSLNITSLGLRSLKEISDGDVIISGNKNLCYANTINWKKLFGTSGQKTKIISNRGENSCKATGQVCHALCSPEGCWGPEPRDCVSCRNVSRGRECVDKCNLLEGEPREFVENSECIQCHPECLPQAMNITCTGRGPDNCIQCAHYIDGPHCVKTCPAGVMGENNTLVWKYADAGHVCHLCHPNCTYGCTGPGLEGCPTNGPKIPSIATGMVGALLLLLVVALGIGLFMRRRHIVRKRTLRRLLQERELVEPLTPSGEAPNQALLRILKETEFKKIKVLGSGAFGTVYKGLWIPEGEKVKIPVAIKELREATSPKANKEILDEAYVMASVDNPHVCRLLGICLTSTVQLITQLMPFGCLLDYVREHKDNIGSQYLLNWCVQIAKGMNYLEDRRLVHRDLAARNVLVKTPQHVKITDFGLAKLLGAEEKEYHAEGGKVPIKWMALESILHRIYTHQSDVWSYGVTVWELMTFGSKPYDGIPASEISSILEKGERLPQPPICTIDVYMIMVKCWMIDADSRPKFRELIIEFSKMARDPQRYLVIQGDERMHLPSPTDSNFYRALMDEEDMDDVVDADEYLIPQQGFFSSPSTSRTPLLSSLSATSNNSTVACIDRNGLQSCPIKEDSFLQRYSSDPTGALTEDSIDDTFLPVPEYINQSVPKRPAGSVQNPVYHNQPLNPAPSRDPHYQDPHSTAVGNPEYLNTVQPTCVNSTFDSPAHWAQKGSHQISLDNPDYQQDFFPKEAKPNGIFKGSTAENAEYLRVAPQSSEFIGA

[1] = target: T1, RSK3(Kin.Dom.1-N-terminal) (Homo sapiens, UniProt Q15349)
T1 construct: gene RPS6KA2; Kin.Dom.1 N-terminal

Sequence of PRKCE (Q02156 whole entry): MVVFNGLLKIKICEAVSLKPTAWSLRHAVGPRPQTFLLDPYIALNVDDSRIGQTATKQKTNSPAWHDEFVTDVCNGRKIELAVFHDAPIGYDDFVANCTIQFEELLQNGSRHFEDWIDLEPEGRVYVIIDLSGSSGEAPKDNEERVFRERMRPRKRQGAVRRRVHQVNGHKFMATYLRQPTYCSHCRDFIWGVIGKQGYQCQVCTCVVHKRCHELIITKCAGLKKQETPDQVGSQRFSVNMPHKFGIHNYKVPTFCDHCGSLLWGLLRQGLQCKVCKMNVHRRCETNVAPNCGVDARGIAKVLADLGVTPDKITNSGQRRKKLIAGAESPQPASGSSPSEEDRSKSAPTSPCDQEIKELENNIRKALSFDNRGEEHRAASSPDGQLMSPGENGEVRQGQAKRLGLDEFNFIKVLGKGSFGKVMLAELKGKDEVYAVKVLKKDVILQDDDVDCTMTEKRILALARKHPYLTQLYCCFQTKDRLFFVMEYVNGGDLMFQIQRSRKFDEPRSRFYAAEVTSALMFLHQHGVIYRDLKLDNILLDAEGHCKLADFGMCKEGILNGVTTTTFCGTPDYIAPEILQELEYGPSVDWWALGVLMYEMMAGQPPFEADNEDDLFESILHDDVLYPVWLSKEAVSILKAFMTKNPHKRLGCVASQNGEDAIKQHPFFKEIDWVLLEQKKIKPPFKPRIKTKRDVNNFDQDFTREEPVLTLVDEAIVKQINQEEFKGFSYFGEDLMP

Structure (SMILES): Oc1ccc(C2=Cc3ccc(O)cc3OC2)cc1 [compound 1, idronoxil]
- remaining binding at 10 µM (DCLK3): 92%
- remaining binding at 10 µM (PRKCE): 92%
- remaining binding at 10 µM (PDGFRB): 18%
- remaining binding at 10 µM (ACVR2B): 53%
- remaining binding at 10 µM (TSSK3): 59%
- remaining binding at 10 µM (NUAK2): 68%
- remaining binding at 10 µM (SIK2): 87%
- remaining binding at 10 µM (PIK3C2G): 73%
- remaining binding at 10 µM (CDK16): 93%
- remaining binding at 10 µM (BLK): 57%
- remaining binding at 10 µM (FGFR2): 80%
- remaining binding at 10 µM (MTOR): 73%
- remaining binding at 10 µM (MYLK2): 80%
- remaining binding at 10 µM (SGK3): 49%
- remaining binding at 10 µM (MAPK6): 96%
- remaining binding at 10 µM (CASK): 65%
- remaining binding at 10 µM (PIP5K1A): 75%
- remaining binding at 10 µM (SYK): 62%
- remaining binding at 10 µM (EGFR): 83%
- remaining binding at 10 µM [1]: 89%
